Assay results as given in PubChem BioAssay AID248 (DTP/NCI, 2004).
Where “and” joins values, the source holds several entries; their conditions need not be identical. Equal values may be shown once. Inconclusive results and toxic doses are left out.

Test system: L1210 leukemia ip in BDF1 mice, survival T/C
Test: NCI In Vivo Anticancer Drug Screen. Data for tumor model L1210 Leukemia (intraperitoneal) in B6D2F1 (BDF1) mice
Conditions: endpoint: mean survival time, higher = longer survival
Outline: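 Ratio derived from survival: compound-dosed mice over vehicle-dosed mice, all bearing a transplantable tumor.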

[1] = dose: 100.0 mg/kg/injection, schedule: Q04DX003 (ip), vehicle: saline with Tween-80
[2] = dose: 200.0 mg/kg/injection, schedule: Q04DX003 (ip), vehicle: saline with Tween-80
[3] = dose: 400.0 mg/kg/injection, schedule: Q04DX003 (ip), vehicle: saline with Tween-80
[4] = dose: 100.0 mg/kg/injection, schedule: Q04DX003 (ip), vehicle: Klucel (hydroxypropylcellulose) (HPC)
[5] = dose: 200.0 mg/kg/injection, schedule: Q04DX003 (ip), vehicle: Klucel (hydroxypropylcellulose) (HPC)
[6] = dose: 400.0 mg/kg/injection, schedule: Q04DX003 (ip), vehicle: Klucel (hydroxypropylcellulose) (HPC)
[7] = dose: 100.0 mg/kg/injection, schedule: Q01DX001 (ip), vehicle: other
[8] = dose: 200.0 mg/kg/injection, schedule: Q01DX001 (ip), vehicle: other
[9] = dose: 400.0 mg/kg/injection, schedule: Q01DX001 (ip), vehicle: other
[10] = dose: 400.0 mg/kg/injection, schedule: Q04DX003 (ip), vehicle: other
[11] = dose: 100.0 mg/kg/injection, schedule: Q04DX002 (ip), vehicle: Klucel (hydroxypropylcellulose) (HPC)
[12] = dose: 200.0 mg/kg/injection, schedule: Q04DX002 (ip), vehicle: Klucel (hydroxypropylcellulose) (HPC)
[13] = dose: 100.0 mg/kg/injection, schedule: Q01DX009 (ip), vehicle: Klucel (hydroxypropylcellulose) (HPC)
[14] = dose: 200.0 mg/kg/injection, schedule: Q01DX009 (ip), vehicle: Klucel (hydroxypropylcellulose) (HPC)
[15] = dose: 400.0 mg/kg/injection, schedule: Q01DX009 (ip), vehicle: Klucel (hydroxypropylcellulose) (HPC)
[16] = dose: 100.0 mg/kg/injection, schedule: Q01DX001 (ip), vehicle: Klucel (hydroxypropylcellulose) (HPC)
[17] = dose: 200.0 mg/kg/injection, schedule: Q01DX001 (ip), vehicle: Klucel (hydroxypropylcellulose) (HPC)
[18] = dose: 400.0 mg/kg/injection, schedule: Q04DX002 (ip), vehicle: Klucel (hydroxypropylcellulose) (HPC)

## Cn1c(C(C)(C)O)cc2ccccc21
[1]
  T/C: 102 % of control
[2]
  T/C: 107 % of control
[3]
  T/C: 100 % of control

## CCC(C(OC(=O)Nc1ccc(Cl)c(Cl)c1)c1ccc(Cl)cc1)C(O)(C(F)(F)F)C(F)(F)F (stereo not drawn)
[4]
  T/C: 98 % of control
[5]
  T/C: 100 % of control
[6]
  T/C: 98 % of control

## Clc1nccc2n[nH]nc12
[7]
  T/C: 94 % of control
dose: 100.0 mg/kg/injection, schedule: Q04DX003 (ip), vehicle: other
  T/C: 103 % of control
[8]
  T/C: 91 % of control
dose: 200.0 mg/kg/injection, schedule: Q04DX003 (ip), vehicle: other
  T/C: 100 % of control
[9]
  T/C: 103 % of control
[10]
  T/C: 107 % of control

## C[Si](C)(CCl)c1ccccc1
dose: 100.0 mg/kg/injection, schedule: Q04DX003 (ip), vehicle: saline
  T/C: 107 % of control
dose: 200.0 mg/kg/injection, schedule: Q04DX003 (ip), vehicle: saline
  T/C: 105 % of control
dose: 400.0 mg/kg/injection, schedule: Q04DX003 (ip), vehicle: saline
  T/C: 100 % of control

## CCOc1ccc(/C=N/Nc2ccc([N+](=O)[O-])cc2)cc1OC
dose: 25.0 mg/kg/injection, schedule: Q01DX009 (ip), vehicle: saline sonified
  T/C: 93 % of control
dose: 37.5 mg/kg/injection, schedule: Q01DX009 (ip), vehicle: saline with Tween-80
  T/C: 91 % of control
dose: 50.0 mg/kg/injection, schedule: Q01DX009 (ip), vehicle: saline sonified
  T/C: 103 % of control
dose: 75.0 mg/kg/injection, schedule: Q01DX009 (ip), vehicle: saline with Tween-80
  T/C: 93 % of control
dose: 100.0 mg/kg/injection, schedule: Q01DX009 (ip), vehicle: saline sonified
  T/C: 98 % of control
[1]
  T/C: 90 % of control
dose: 150.0 mg/kg/injection, schedule: Q01DX009 (ip), vehicle: saline with Tween-80
  T/C: 96 % of control
[2]
  T/C: 97 % of control
dose: 400.0 mg/kg/injection, schedule: Q04DX003 (ip), vehicle: saline sonified
  T/C: 88 % of control
[3]
  T/C: 87 % of control

## C[CH2][Pb]([CH2]C)([CH2]C)[S]C(C)=O
dose: 1.5 mg/kg/injection, schedule: Q01DX009 (ip), vehicle: Klucel (hydroxypropylcellulose) (HPC)
  T/C: 89 % of control
dose: 3.0 mg/kg/injection, schedule: Q01DX009 (ip), vehicle: Klucel (hydroxypropylcellulose) (HPC)
  T/C: 101 % of control
dose: 12.5 mg/kg/injection, schedule: Q04DX002 (ip), vehicle: Klucel (hydroxypropylcellulose) (HPC)
  T/C: 102 % of control

## Oc1ccc(Cl)cc1/C=N/NC(=S)Nc1cccc2cccnc12
dose: 100.0 mg/kg/injection, schedule: Q01DX001 (ip), vehicle: saline
  T/C: 111 % of control
dose: 200.0 mg/kg/injection, schedule: Q01DX001 (ip), vehicle: saline
  T/C: 100 % of control
dose: 400.0 mg/kg/injection, schedule: Q01DX001 (ip), vehicle: saline
  T/C: 91 % of control

## O=C1NC(=O)C2C3CCC(O3)C12 (stereo not drawn)
dose: 25.0 mg/kg/injection, schedule: Q04DX002 (ip), vehicle: Klucel (hydroxypropylcellulose) (HPC)
  T/C: 92 % of control and 98 % of control
dose: 50.0 mg/kg/injection, schedule: Q04DX002 (ip), vehicle: Klucel (hydroxypropylcellulose) (HPC)
  T/C: 96 % of control and 102 % of control
dose: 55.0 mg/kg/injection, schedule: Q01DX Z (ip), vehicle: methylcellulose (MC)
  T/C: 98 % of control
dose: 83.0 mg/kg/injection, schedule: Q01DX Z (ip), vehicle: methylcellulose (MC)
  T/C: 105 % of control
[11]
  T/C: 103 % of control and 98 % of control and 86 % of control
dose: 125.0 mg/kg/injection, schedule: Q01DX Z (ip), vehicle: methylcellulose (MC)
  T/C: 94 % of control
[12]
  T/C: 106 % of control

## Cc1ccc(N=Nc2ccc(C)cc2NC(=O)c2ccc(Cl)cc2Cl)cc1
[13]
  T/C: 88 % of control
[14]
  T/C: 97 % of control
[15]
  T/C: 89 % of control

## COc1c(OC)c(OC)c2c(c1OC)c(=O)c1ccccc1n2C
dose: 50.0 mg/kg/injection, schedule: Q01DX001 (ip), vehicle: carboxymethylcellulose (CMC)
  T/C: 93 % of control
dose: 100.0 mg/kg/injection, schedule: Q01DX001 (ip), vehicle: carboxymethylcellulose (CMC)
  T/C: 102 % of control
dose: 200.0 mg/kg/injection, schedule: Q01DX001 (ip), vehicle: carboxymethylcellulose (CMC)
  T/C: 96 % of control
dose: 400.0 mg/kg/injection, schedule: Q01DX001 (ip), vehicle: carboxymethylcellulose (CMC)
  T/C: 98 % of control

## Nc1cncc2ncc(-c3ccc(Cl)c(Cl)c3)nc12
dose: 50.0 mg/kg/injection, schedule: Q01DX001 (ip), vehicle: other
  T/C: 98 % of control
[7]
  T/C: 98 % of control
[8]
  T/C: 98 % of control
[9]
  T/C: 100 % of control

## Cn1ncc(=O)[nH]c1=O
dose: 50.0 mg/kg/injection, schedule: Q01DX009 (ip), vehicle: saline
  T/C: 100 % of control
dose: 100.0 mg/kg/injection, schedule: Q01DX009 (ip), vehicle: saline
  T/C: 108 % of control
dose: 200.0 mg/kg/injection, schedule: Q01DX009 (ip), vehicle: saline
  T/C: 103 % of control

## CN(C)c1ccc(C(C#N)C(C#N)c2ccccc2)cc1 (stereo not drawn)
dose: 50.0 mg/kg/injection, schedule: Q01DX001 (ip), vehicle: Klucel (hydroxypropylcellulose) (HPC)
  T/C: 88 % of control
[16]
  T/C: 88 % of control
[17]
  T/C: 88 % of control

## O=C(/C=C/c1ccccc1)NC(=S)NCc1ccco1
[13]
  T/C: 94 % of control and 95 % of control
[11]
  T/C: 97 % of control
[4]
  T/C: 95 % of control
[14]
  T/C: 92 % of control and 98 % of control
[12]
  T/C: 101 % of control and 114 % of control
[5]
  T/C: 95 % of control
[15]
  T/C: 94 % of control and 95 % of control
[18]
  T/C: 95 % of control and 102 % of control
[6]
  T/C: 94 % of control

## Nc1ccc(Cl)cc1N
dose: 90.0 mg/kg/injection, schedule: Q01DX001 (ip), vehicle: other
  T/C: 100 % of control
dose: 90.0 mg/kg/injection, schedule: Q04DX003 (ip), vehicle: other
  T/C: 97 % of control
dose: 100.0 mg/kg/injection, schedule: Q01DX009 (ip), vehicle: saline with Tween-80
  T/C: 104 % of control
dose: 100.0 mg/kg/injection, schedule: Q04DX002 (ip), vehicle: other
  T/C: 107 % of control
dose: 175.0 mg/kg/injection, schedule: Q01DX001 (ip), vehicle: other
  T/C: 105 % of control
dose: 175.0 mg/kg/injection, schedule: Q01DX009 (ip), vehicle: other
  T/C: 111 % of control
dose: 175.0 mg/kg/injection, schedule: Q04DX003 (ip), vehicle: other
  T/C: 100 % of control
dose: 200.0 mg/kg/injection, schedule: Q01DX009 (ip), vehicle: saline with Tween-80
  T/C: 114 % of control
dose: 200.0 mg/kg/injection, schedule: Q04DX002 (ip), vehicle: other
  T/C: 107 % of control
dose: 265.0 mg/kg/injection, schedule: Q01DX001 (ip), vehicle: other
  T/C: 99 % of control
dose: 265.0 mg/kg/injection, schedule: Q01DX009 (ip), vehicle: other
  T/C: 151 % of control
dose: 265.0 mg/kg/injection, schedule: Q04DX003 (ip), vehicle: other
  T/C: 106 % of control
[9]
  T/C: 110 % of control
dose: 400.0 mg/kg/injection, schedule: Q04DX002 (ip), vehicle: other
  T/C: 114 % of control
[10]
  T/C: 104 % of control

## Cc1cc(F)ccc1OCC(=O)Oc1ccc([N+](=O)[O-])cc1
[11]
  T/C: 108 % of control
[12]
  T/C: 101 % of control
[18]
  T/C: 111 % of control

## O=[N+]([O-])c1cc(Br)cnc1Br
[16]
  T/C: 100 % of control
[13]
  T/C: 101 % of control
[17]
  T/C: 105 % of control
[14]
  T/C: 96 % of control
dose: 400.0 mg/kg/injection, schedule: Q01DX001 (ip), vehicle: Klucel (hydroxypropylcellulose) (HPC)
  T/C: 105 % of control
[15]
  T/C: 103 % of control
